Data as given in patent EP0123446A1, “2-Furylbutyrolactone derivatives, their preparation, compositions containing them, and their use for the modulation of the immune system in mammals” (NATIONAL FOUNDATION FOR CANCER RESEARCH, INC., priority 1983, dated 1984).

Experiments:
[1] = system: L-1210 leukaemia cells; assay: L-1210 leukaemia anti-cancer study (NCI protocol), BDF1 mice; assay type: in vivo; conditions: 20 mg/kg, seven days, Table 25
Text: Mice of the BDF1 strain were given an i.p. inoculation of 10^6 L-1210 leukaemia cells on day 0. Twenty-four hours later, groups of 7 mice each were started on a […] treatment regimen of various doses of the compounds of this invention. The experiment was continued according to the guidelines provided under the National Cancer Institute protocol for screening new anti-cancer agents; T/C ratios (median or mean survival time of treated groups over median or mean survival time of controls) were calculated. A T/C value > 1.25 (or 125%) is considered to indicate significant anticancer activity.
Mice of the BDF1 strain, inoculated with L-1210 leukaemia cells, were treated for seven days with either 25, 50, 100, 200 or 400 mg/kg of Cpd. 1 or just buffer. The National Cancer Institute protocol for screening new anti-cancer agents was followed and T/C ratios were calculated.
Mice of the BDFI strain, inoculated with L-1210 leukaemia cells, were treated for seven days with either 100 mg/kg of Cpd. 1, 20 mg/kg of 5-fluorouracil (5-FU), a known anti-cancer agent, or just buffer. The National Cancer Institute protocol for screening new anti-cancer agents was followed and T/C ratios are calculated.

[2] = system: human lymphocytes; assay: In vitro lymphocyte stimulation assay, human lymphocytes; assay type: cell-based; design: key to Lymphocyte Stimulation Index PHA / Lymphocyte Stimulation Index Con-A: ratio of cpm of mitogen-stimulated to non-mitogen control group (LSI); conditions: for Lymphocyte Stimulation Index Con-A / Lymphocyte Stimulation Index PHA: human, Table 6-A
Protocol: (§1) The purpose of this assay is to challange lymphocytes in microcultures with one or more polyclonal mitogens at concentrations that will induce mitogenesis within 72 hours of stimulation.
(§2) In the mouse model, spleens were removed from different strains of mice and the spleen cells were teased free and suspended in RPMI-1640 tissue culture medium at a concentration of usually 1 x 10^7 ml. These cells were dispensed at a concentration of […] cells per microculture well in a 96 well flat bottom tissue culture plate. All testing of the compounds of this invention or mitogens were done in replicates of 10. The cells were then treated with PHA. Con-A, specific antigens, or buffer only. Where in vitro testing was done, varying concentrations of the compounds of this invention or buffer only were added to the cells as well. After treatment with the mitogens and/or compounds of this invention, the cells were incubated for 72 hours. The response of these cells to mitogens and/or the compounds of this invention was assessed using 14 C-thymidine labeling on the fourth day at a concentration of 0.01 microCi/well. The labeled cells were harvested using a lymphocyte harvestor and placed onto fibrous paper discs. A scintillation cocktail was added to vials containing the discs and the results were obtained using a LKB-liquid scintillation counter (Model 1216/Rackbeta II). The data is expressed as a ratio of the cpm (counts per minute) of the mitogen stimulated group to the control (non-mitogen) treated group = lymphocyte stimulation index (LSI).
(§3) The lymphocyte stimulation assay may be performed directly on spleen cells obtained from various strains of mice not treated with the compounds of this invention or on lymphocytes obtained from human plasma. In such experiments, the compounds of this invention were added directly to the spleen lymphcytes in vitro and the assay was completed and results interpreted. Alternatively. the mice may be treated in vivo with the compounds of this invention by intraperitoneal multi-dose schedules, followed by sacrifice and harvesting spleen lymphocytes. These cells were then tested for their response to polyclonal mitogens or specific antigens used to immunize the mice. In this system however, no additional compound was added to the in vitro lymphocyte stimulation assay system.
Lymphocytes isolated from 5 human volunteers were treated in vitro with PHA and Con-A and either 10^2, 10^3, 10^4, 5 x 10^4 or 10^5 ng/well of Cpd. 1, 10^2, 10^3, 10^4, 5 x 10^4, or 10^5 ng/well of AA, or buffer.

[3] = system: spleen lymphocytes; assay: Lymphocyte stimulation assay after in vivo treatment, C57BL/6 mice; conditions: for Lymphocyte Stimulation Index Con-A / Lymphocyte Stimulation Index Control / Lymphocyte Stimulation Index PHA: C57BL/6, Table 3-A
Protocol: as §1, §2, §3

[4] = system: spleen lymphocytes; assay: In vitro lymphocyte stimulation assay, C57BL/6 spleen lymphocytes; assay type: cell-based, mice; conditions: for effect on response of the lymphocytes to PHA and Con-A: C57BL/6 spleen cells in vitro, Example 19
Protocol: as §1, §2, §3

[5] = 1.04x10^3 ng/well in vitro, C57BL/6, Table 12-A
[6] = 1.66x10^4 ng/well in vitro, C57BL/6, Table 12-A
[7] = 2.08x10^3 ng/well in vitro, C57BL/6, Table 12-A
[8] = 4.15x10^3 ng/well in vitro, C57BL/6, Table 12-A
[9] = 8.3x10^3 ng/well in vitro, C57BL/6, Table 12-A
[10] = 1.392x10^4 ng/well, C57BL/6, Table 12-B
[11] = 1.74x10^3 ng/well, C57BL/6, Table 12-B
[12] = 3.48x10^3 ng/well, C57BL/6, Table 12-B
[13] = 6.96x10^3 ng/well, C57BL/6, Table 12-B
[14] = 8.7x10^2 ng/well, C57BL/6, Table 12-B

Structure (SMILES): O=c1[nH]cc(F)c(=O)[nH]1 [5-FU, 5-fluorouracil]
- Median Survival Time [1]: 30
- T/C [1]: 1.50

Structure (SMILES): O=C1O[C@H]([C@@H](O)CO)C(O)=C1O [AA, ascorbic acid]
- Lymphocyte Stimulation Index Con-A ([2]; 5x10^4 ng/well in vitro): 23.31
- Lymphocyte Stimulation Index PHA ([2]; 5x10^4 ng/well in vitro): 35.93
- Lymphocyte Stimulation Index Con-A ([2]; 10^2 ng/well in vitro): 24.37
- Lymphocyte Stimulation Index PHA ([2]; 10^2 ng/well in vitro): 38.29
- Lymphocyte Stimulation Index Con-A ([2]; 10^3 ng/well in vitro): 24.76
- Lymphocyte Stimulation Index PHA ([2]; 10^3 ng/well in vitro): 34.69
- Lymphocyte Stimulation Index Con-A ([2]; 10^4 ng/well in vitro): 27.35
- Lymphocyte Stimulation Index PHA ([2]; 10^4 ng/well in vitro): 35.10
- Lymphocyte Stimulation Index Con-A ([2]; 10^5 ng/well in vitro): 25.18
- Lymphocyte Stimulation Index PHA ([2]; 10^5 ng/well in vitro): 34.23
- proliferative or anti-proliferative effect, PHA and Con-A ([2]; 10^2 to 10^5 ng/well, human lymphocytes in vitro): no significant proliferative or anti-proliferative effect
- effect on lymphocyte response, Con-A stimulated group ([3]; 50 mg/kg i.p. 4 days, C57BL/6): single stimulation of proliferation
- Lymphocyte Stimulation Index Con-A ([3]; 50 mg/kg i.p. 4 days): 25.5
- Lymphocyte Stimulation Index Control ([3]; 50 mg/kg i.p. 4 days): 0.56
- Lymphocyte Stimulation Index PHA ([3]; 50 mg/kg i.p. 4 days): 17.1
- Lymphocyte Stimulation Index Con-A ([3]; 100 mg/kg i.p. 4 days): 19.8
- Lymphocyte Stimulation Index Control ([3]; 100 mg/kg i.p. 4 days): 1.8
- Lymphocyte Stimulation Index PHA ([3]; 100 mg/kg i.p. 4 days): 17.1
- Lymphocyte Stimulation Index Con-A ([3]; 200 mg/kg i.p. 4 days): 21.1
- Lymphocyte Stimulation Index Control ([3]; 200 mg/kg i.p. 4 days): 1.3
- Lymphocyte Stimulation Index PHA ([3]; 200 mg/kg i.p. 4 days): 10.0
- Lymphocyte Stimulation Index Con-A ([3]; 400 mg/kg i.p. 4 days): 17.8
- Lymphocyte Stimulation Index Control ([3]; 400 mg/kg i.p. 4 days): 1.3
- Lymphocyte Stimulation Index PHA ([3]; 400 mg/kg i.p. 4 days): 14.3
- Lymphocyte Stimulation Index Con-A ([3]; 800 mg/kg i.p. 4 days): 23.9
- Lymphocyte Stimulation Index Control ([3]; 800 mg/kg i.p. 4 days): 0.50
- Lymphocyte Stimulation Index PHA ([3]; 800 mg/kg i.p. 4 days): 12.1
- effect on lymphocyte response with PHA ([3]; 50-800 mg/kg i.p. 4 days, C57BL/6): No statistically significant measureable effect

Structure (SMILES): O=C(O)CCC(=O)O [Succinic Acid, succinic acid]
- Lymphocyte Stimulation Index Con-A [4, 5]: 64.6
- Lymphocyte Stimulation Index Control [4, 5]: 0.94
- Lymphocyte Stimulation Index PHA [4, 5]: 15.7
- Lymphocyte Stimulation Index Con-A [4, 6]: 38.5
- Lymphocyte Stimulation Index Control [4, 6]: 1.1
- Lymphocyte Stimulation Index PHA [4, 6]: 11.5
- Lymphocyte Stimulation Index Con-A [4, 7]: 51.1
- Lymphocyte Stimulation Index Control [4, 7]: 1.0
- Lymphocyte Stimulation Index PHA [4, 7]: 15.3
- Lymphocyte Stimulation Index Con-A [4, 8]: 42.3
- Lymphocyte Stimulation Index Control [4, 8]: 0.91
- Lymphocyte Stimulation Index PHA [4, 8]: 14.0
- Lymphocyte Stimulation Index Con-A [4, 9]: 35.6
- Lymphocyte Stimulation Index Control [4, 9]: 0.91
- Lymphocyte Stimulation Index PHA [4, 9]: 12.4
- effect on response of the lymphocytes to PHA and Con-A [4]: decrease in PHA and Con-A mitogenesis with increased succinic acid dosage

Structure (SMILES): O=C1CCC(=O)N1 [Succinimide, succinimide]
- Lymphocyte Stimulation Index Con-A [4, 10]: 92.9
- Lymphocyte Stimulation Index Control [4, 10]: 1.4
- Lymphocyte Stimulation Index PHA [4, 10]: 17.1
- Lymphocyte Stimulation Index Con-A [4, 11]: 83.4
- Lymphocyte Stimulation Index Control [4, 11]: 1.1
- Lymphocyte Stimulation Index PHA [4, 11]: 17.5
- Lymphocyte Stimulation Index Con-A [4, 12]: 85.1
- Lymphocyte Stimulation Index Control [4, 12]: 0.98
- Lymphocyte Stimulation Index PHA [4, 12]: 18.1
- Lymphocyte Stimulation Index Con-A [4, 13]: 71.9
- Lymphocyte Stimulation Index Control [4, 13]: 1.1
- Lymphocyte Stimulation Index PHA [4, 13]: 17.2
- Lymphocyte Stimulation Index Con-A [4, 14]: 76.0
- Lymphocyte Stimulation Index Control [4, 14]: 0.91
- Lymphocyte Stimulation Index PHA [4, 14]: 19.5
- effect on response of the lymphocytes to PHA and Con-A [4]: no significant suppressive or enhancing effect
